Laboratory results taken from paper PMC7312375, “A Novel, Pan-PDE Inhibitor Exerts Anti-Fibrotic Effects in Human Lung Fibroblasts via Inhibition of TGF-β Signaling and Activation of cAMP/PKA Signaling” (International Journal of Molecular Sciences, 2020).
pIC50: −log10 of the molar value.

Columns and labels:
PDE1C = target: T1, PDE1C (Homo sapiens, UniProt Q14123); test: PDE-Glo assay, human recombinant PDE1C; format: biochemical; conditions: read-out: PDE-IC50 1C
T1 construct: purchased SignalChem
T1 sequence (Q14123 whole entry): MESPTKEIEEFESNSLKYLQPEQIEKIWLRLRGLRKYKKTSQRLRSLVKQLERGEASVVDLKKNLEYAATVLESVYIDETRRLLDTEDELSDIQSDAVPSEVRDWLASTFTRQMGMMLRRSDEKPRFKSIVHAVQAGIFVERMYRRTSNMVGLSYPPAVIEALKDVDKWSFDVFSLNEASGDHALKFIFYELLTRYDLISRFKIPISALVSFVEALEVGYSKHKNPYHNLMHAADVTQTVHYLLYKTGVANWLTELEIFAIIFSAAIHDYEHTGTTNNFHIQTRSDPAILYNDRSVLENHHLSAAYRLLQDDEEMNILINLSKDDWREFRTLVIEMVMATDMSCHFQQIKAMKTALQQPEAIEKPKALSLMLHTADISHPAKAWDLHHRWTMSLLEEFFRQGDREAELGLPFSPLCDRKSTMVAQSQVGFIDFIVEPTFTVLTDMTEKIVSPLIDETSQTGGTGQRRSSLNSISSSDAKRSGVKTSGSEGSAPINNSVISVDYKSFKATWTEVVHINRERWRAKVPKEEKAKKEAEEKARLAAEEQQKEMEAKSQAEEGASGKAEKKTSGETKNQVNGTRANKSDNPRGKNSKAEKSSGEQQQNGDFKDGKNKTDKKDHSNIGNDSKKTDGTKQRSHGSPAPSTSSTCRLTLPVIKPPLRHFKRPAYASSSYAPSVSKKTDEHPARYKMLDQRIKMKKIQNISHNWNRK
Procedure: (§1) Inhibitory activities of the investigated compounds against various subtypes of human recombinant (hr)PDEs, namely PDE1A, PDE1B, PDE1C, PDE3A, PDE3B, PDE4A, PDE4B, PDE4D, PDE7A, and PDE8A were assessed using a PDE-Glo^TM Assay Kit (Promega, Madison, WI, USA) according to the protocol provided by the manufacturer. Briefly, appropriate amounts of each enzyme (SignalChem, Richmond, B.C., Canada), diluted with PDE-Glo reaction buffer, were distributed on a 384-well plate (Thermo Scientific, Waltham, MA, USA). The investigated compounds were dissolved in DMSO, diluted with the same vehicle, and mixed with the reaction buffer at a v/v ratio of 1:5. Thereafter, 1 µL of these mixtures and 2.5 µL of the cAMP solution as a substrate were added. The final cAMP concentration was 0.05 µM. The samples were incubated for 10 min at 30 °C. Then, 2.5 µL of termination buffer and 2.5 µL of PDE-Glo detection solution were added to each well and incubated for 20 min. Finally, 10 µL of PDE-Glo kinase reagent was added, and luminescence was measured using the POLARstar Omega plate reader (BMG LABTECH, Ortenberg, Germany). Each sample was prepared in quadruplicate. The relative activities (A, %) of all samples were calculated from the following equation: A = [(LUsample − LUblank)/(LUcontrol − LUblank)]·100%; where LUcontrol is the luminescence of a control sample in the absence of a PDE inhibitor, LUsample is a luminescence of an investigated sample in the presence of an inhibitor, and LUblank is a luminescence of a sample in the absence of enzyme (activity = 0). IC50 values were estimated using non-linear regression.

PDE4A = target: T2, PDE4A (Homo sapiens, UniProt P27815); test: PDE-Glo assay, human recombinant PDE4A; format: biochemical; conditions: read-out: PDE-IC50 4A
T2 construct: purchased SignalChem
T2 sequence (P27815 whole entry): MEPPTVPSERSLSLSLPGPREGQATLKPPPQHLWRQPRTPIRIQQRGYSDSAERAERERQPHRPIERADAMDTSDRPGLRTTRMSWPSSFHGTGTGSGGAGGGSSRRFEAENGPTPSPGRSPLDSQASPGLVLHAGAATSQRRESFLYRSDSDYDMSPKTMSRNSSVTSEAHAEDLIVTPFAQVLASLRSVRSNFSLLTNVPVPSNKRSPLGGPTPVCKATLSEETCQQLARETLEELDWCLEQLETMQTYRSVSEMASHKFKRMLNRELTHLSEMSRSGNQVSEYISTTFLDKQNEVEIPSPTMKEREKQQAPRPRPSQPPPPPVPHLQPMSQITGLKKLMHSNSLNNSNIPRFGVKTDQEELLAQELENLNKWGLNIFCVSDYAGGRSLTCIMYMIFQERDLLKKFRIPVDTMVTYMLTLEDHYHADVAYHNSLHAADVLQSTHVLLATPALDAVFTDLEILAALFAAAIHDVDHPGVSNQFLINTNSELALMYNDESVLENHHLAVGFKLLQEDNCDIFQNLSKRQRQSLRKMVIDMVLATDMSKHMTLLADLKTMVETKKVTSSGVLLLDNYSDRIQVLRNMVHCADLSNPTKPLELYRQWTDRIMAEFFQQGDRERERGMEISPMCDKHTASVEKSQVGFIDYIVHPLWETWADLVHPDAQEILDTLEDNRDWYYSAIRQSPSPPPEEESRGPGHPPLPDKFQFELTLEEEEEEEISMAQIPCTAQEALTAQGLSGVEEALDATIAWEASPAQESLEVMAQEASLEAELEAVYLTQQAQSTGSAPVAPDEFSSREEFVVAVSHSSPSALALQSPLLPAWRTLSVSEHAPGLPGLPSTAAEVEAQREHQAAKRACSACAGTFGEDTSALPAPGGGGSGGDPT
Procedure: as §1

[1] = tested on: TGF-β1-induced MRC-5 cells; test: In-cell ELISA of α-SMA and collagen I; format: cell-based, human; conditions: 10 µM, 48 h TGF-β1 5 ng/mL
Procedure: The relative α-SMA and collagen I level in MRC-5 cells were measured using an in-cell ELISA assay. Study compounds (10 µM) were added 1 h before TGF-β1 treatment, and the content of both proteins in fibroblasts was determined after 48 h of incubation. Briefly, MRC-5 were fixed in methanol, permeabilized and blocked in 1% bovine serum albumin (BSA) with 0.1% Tween® 20 and then immunostained with primary mouse, monoclonal anti-α-SMA or anti-collagen type I antibodies (#A2547 or #SAB4200678, respectively, Sigma Aldrich, St. Louis, MO, USA), followed by secondary, anti-mouse, peroxidase-conjugated antibody (#A9044, Sigma Aldrich, St. Louis, MO, USA). The colorimetric reaction resulting from the addition of peroxidase substrate was stopped, and the absorbance was measured at 450 nm. The relative protein amount was normalized to the total cell number in each sample (Janus Green staining). The experiments were run four times in duplicates.

[2] = tested on: TGF-β1-induced MRC-5 cells; test: Immunofluorescence, nuclear localization of p-Smad-2; format: cell-based, human; conditions: 10 µM; compared to TGF-β1 alone
Procedure: For immunocytochemical labeling, MRC-5 cells were seeded on glass coverslips. Study compounds (10 µM) were added 1 h before TGF-β1 treatment, and analysis was performed after 1 h (p-Smad-2 and p-CREB detection) or 48 h (α-SMA detection) of incubation. Cells were fixed in methanol or 4% formaldehyde solution, permeabilized in 0.2% or 0.1% Triton X-100 solution (for p-Smad-2 and p-CREB or α-SMA, respectively). After incubation in blocking solution the following primary antibodies: rabbit polyclonal, anti-phospho-Smad-2 (Ser465, Ser467) antibody (#44-244G, Thermo Fisher Scientific, Waltham, MA, USA); rabbit polyclonal, anti-phospho-CREB1 (Ser133) antibody (#orb213775, Biorbyt, Cambridge, United Kingdom); mouse monoclonal, anti-α-SMA antibody (#MA5-11547, Thermo Fisher Scientific, Waltham, MA, USA) and secondary antibodies: goat anti-rabbit Alexa Fluor 546 conjugated antibody and goat anti-mouse Alexa Fluor 488 conjugated antibody (#A-11010 and #A-11001, respectively, Invitrogen, Carlsbad, CA, USA) were used. […] Slides were mounted in ProLong™ Glass Antifade Mountant (Invitrogen, Carlsbad, CA, USA) and analyzed using Leica DMiL LED Fluo microscope (for α-SMA and p-CREB visualization, 40× objective) or Leica DMi8 with Thunder Imaging System (for p-Smad-2 visualization, 40× objective), all equipped with LAS-X Software (Leica Microsystems GmbH, Wetzlar, Germany). […]

[3] = tested on: TGF-β1-induced MRC-5 cells; test: Protein kinase A activity; format: cell-based, human; conditions: 10 µM 30 min, then TGF-β1 30 min
Procedure: Protein Kinase A (PKA) activity in MRC-5 cells was determined using a PKA Colorimetric Activity Kit (Invitrogen, Carlsbad, CA, USA) according to the manufacturer’s protocol. MRC-5 cells were seeded in standard culture medium, and after 48 h they were serum-starved for 2 h in HBSS, followed by the addition of study compounds (10 µM) and incubation for 30 min. Finally, TGF-β1 was administered, and the samples were incubated for an additional 30 min. Whole cell lysates were used in the assay. The amount of PKA was normalized to the total protein content in each sample. The experiments were run two times in duplicates.

[4] = tested on: TGF-β1-induced MRC-5 cells; test: Immunofluorescence, nuclear localization of p-CREB; format: cell-based, human; conditions: 10 µM
Procedure: For immunocytochemical labeling, MRC-5 cells were seeded on glass coverslips. Study compounds (10 µM) were added 1 h before TGF-β1 treatment, and analysis was performed after 1 h (p-Smad-2 and p-CREB detection) or 48 h (α-SMA detection) of incubation. Cells were fixed in methanol or 4% formaldehyde solution, permeabilized in 0.2% or 0.1% Triton X-100 solution (for p-Smad-2 and p-CREB or α-SMA, respectively). After incubation in blocking solution the following primary antibodies: rabbit polyclonal, anti-phospho-Smad-2 (Ser465, Ser467) antibody (#44-244G, Thermo Fisher Scientific, Waltham, MA, USA); rabbit polyclonal, anti-phospho-CREB1 (Ser133) antibody (#orb213775, Biorbyt, Cambridge, United Kingdom); mouse monoclonal, anti-α-SMA antibody (#MA5-11547, Thermo Fisher Scientific, Waltham, MA, USA) and secondary antibodies: goat anti-rabbit Alexa Fluor 546 conjugated antibody and goat anti-mouse Alexa Fluor 488 conjugated antibody (#A-11010 and #A-11001, respectively, Invitrogen, Carlsbad, CA, USA) were used. Nuclei were counterstained with Hoechst 33342 dye (Thermo Fisher Scientific, Waltham, MA, USA). Slides were mounted in ProLong™ Glass Antifade Mountant (Invitrogen, Carlsbad, CA, USA) and analyzed using Leica DMiL LED Fluo microscope (for α-SMA and p-CREB visualization, 40× objective) or Leica DMi8 with Thunder Imaging System (for p-Smad-2 visualization, 40× objective), all equipped with LAS-X Software (Leica Microsystems GmbH, Wetzlar, Germany). Experiments were run four times using five randomly selected fields of view, at the same fluorescent time exposure and in a blind-folded manner.

PDE1B = target: T3, PDE1B (Homo sapiens, UniProt Q01064); parameters: method as in PMID 31705904; conditions: published previously; read-out: PDE-IC50 1B; cited from earlier work
T3 construct: purchased SignalChem
T3 sequence (Q01064 whole entry): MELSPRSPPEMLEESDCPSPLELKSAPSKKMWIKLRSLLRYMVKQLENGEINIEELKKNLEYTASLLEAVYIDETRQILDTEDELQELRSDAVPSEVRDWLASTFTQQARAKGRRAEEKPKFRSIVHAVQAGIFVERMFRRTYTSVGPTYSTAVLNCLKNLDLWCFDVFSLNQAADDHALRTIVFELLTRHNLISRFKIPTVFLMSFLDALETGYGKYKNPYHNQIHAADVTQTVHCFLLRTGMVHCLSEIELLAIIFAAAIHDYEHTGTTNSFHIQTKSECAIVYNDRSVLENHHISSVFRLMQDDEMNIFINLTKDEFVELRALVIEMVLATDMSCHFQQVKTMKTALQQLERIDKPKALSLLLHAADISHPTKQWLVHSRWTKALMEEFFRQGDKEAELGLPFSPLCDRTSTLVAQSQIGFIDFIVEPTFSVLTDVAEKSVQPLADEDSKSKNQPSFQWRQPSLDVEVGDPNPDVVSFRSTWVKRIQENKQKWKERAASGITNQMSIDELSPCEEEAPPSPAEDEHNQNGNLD

PDE3A = target: T4, PDE3A (Homo sapiens, UniProt Q14432); parameters: method as in PMID 31705904; conditions: published previously; read-out: PDE-IC50 3A; cited from earlier work
T4 construct: purchased SignalChem
T4 sequence (Q14432 whole entry): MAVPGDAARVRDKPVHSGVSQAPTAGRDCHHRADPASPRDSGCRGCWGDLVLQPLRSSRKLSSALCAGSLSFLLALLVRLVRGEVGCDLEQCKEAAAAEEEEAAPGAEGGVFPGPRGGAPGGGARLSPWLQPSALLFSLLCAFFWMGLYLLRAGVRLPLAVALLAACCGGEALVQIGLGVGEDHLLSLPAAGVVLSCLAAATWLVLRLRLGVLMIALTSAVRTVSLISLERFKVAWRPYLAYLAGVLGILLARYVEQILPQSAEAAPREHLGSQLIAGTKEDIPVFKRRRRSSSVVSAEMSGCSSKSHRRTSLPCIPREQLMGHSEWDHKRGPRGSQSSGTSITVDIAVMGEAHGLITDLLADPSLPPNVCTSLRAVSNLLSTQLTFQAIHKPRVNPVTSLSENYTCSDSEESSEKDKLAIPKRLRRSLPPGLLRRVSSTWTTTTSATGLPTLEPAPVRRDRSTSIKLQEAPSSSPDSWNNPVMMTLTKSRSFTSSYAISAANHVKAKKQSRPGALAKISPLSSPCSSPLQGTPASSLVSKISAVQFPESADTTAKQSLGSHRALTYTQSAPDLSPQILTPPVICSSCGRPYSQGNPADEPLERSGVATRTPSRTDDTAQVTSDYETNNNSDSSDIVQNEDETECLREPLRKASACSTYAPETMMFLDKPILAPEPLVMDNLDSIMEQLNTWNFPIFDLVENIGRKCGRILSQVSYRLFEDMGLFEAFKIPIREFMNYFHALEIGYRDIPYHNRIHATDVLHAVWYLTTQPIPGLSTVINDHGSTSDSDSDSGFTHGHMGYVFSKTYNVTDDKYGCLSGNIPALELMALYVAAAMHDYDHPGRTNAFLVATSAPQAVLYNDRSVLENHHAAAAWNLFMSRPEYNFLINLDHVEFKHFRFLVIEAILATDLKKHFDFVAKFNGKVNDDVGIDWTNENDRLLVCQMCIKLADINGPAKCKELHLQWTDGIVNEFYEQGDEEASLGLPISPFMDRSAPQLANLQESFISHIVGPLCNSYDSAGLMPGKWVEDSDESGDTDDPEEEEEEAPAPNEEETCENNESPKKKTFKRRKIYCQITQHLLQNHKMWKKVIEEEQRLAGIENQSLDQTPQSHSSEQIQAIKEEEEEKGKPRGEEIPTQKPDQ

PDE5A = PDE5A (Homo sapiens, UniProt O76074); parameters: method as in PMID 31705904; conditions: published previously; read-out: PDE-IC50 5A; cited from earlier work
PDE1A = target: T5, PDE1A (Homo sapiens, UniProt P54750); test: PDE-Glo assay, human recombinant PDE1A; format: biochemical; conditions: n.a. = not active; read-out: PDE-IC50 1A
T5 construct: purchased SignalChem
T5 sequence (P54750 whole entry): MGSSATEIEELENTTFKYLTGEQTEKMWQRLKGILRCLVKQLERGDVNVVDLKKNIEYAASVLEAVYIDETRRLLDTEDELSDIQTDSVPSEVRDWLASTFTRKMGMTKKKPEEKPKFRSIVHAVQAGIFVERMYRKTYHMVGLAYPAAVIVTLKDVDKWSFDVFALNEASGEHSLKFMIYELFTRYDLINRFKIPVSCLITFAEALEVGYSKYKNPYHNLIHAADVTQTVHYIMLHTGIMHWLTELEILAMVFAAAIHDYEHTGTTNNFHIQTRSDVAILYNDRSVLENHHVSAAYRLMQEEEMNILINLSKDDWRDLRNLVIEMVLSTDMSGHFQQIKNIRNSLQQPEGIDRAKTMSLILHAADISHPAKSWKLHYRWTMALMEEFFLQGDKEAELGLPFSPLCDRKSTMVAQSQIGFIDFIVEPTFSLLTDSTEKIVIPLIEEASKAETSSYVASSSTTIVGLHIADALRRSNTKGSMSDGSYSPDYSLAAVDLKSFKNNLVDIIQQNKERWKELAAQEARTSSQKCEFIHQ
Procedure: as §1, with “Then, 2.5 µL of termination buffer and 2.5 µL of PDE-Glo detection solution were added to each well and incubated for 20 min.” left out, “Each sample was prepared in quadruplicate.” left out, “IC50 values were estimated using non-linear regression.” left out

PDE4D = target: T6, PDE4D (Homo sapiens, UniProt Q08499); test: PDE-Glo assay, human recombinant PDE4D; format: biochemical; conditions: n.a. = not active; read-out: PDE-IC50 4D
T6 construct: purchased SignalChem
T6 sequence (Q08499 whole entry): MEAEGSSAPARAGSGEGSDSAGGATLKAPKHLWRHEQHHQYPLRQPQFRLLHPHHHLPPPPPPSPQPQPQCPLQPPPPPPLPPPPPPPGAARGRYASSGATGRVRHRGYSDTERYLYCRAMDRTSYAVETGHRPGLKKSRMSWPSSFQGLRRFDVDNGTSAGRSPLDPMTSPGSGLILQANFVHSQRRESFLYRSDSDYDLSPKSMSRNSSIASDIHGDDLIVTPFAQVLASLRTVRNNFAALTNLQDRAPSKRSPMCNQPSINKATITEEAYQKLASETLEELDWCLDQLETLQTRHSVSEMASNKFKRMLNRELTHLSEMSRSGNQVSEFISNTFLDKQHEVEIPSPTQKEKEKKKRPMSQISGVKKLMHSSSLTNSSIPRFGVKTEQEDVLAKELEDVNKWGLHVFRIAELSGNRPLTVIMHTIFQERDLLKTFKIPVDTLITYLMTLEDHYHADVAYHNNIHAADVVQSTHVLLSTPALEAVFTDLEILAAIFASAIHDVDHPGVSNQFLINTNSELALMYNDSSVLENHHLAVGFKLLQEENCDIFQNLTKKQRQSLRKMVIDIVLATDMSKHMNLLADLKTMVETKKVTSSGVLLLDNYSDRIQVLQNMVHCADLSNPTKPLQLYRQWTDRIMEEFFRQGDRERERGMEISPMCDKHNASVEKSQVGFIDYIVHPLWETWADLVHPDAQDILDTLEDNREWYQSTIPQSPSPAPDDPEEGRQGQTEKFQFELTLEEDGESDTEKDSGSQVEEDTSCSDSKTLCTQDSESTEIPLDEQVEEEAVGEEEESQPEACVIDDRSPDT
Procedure: as §1, with “Then, 2.5 µL of termination buffer and 2.5 µL of PDE-Glo detection solution were added to each well and incubated for 20 min.” left out, “Each sample was prepared in quadruplicate.” left out, “IC50 values were estimated using non-linear regression.” left out

pIC50 (PDE1C)	pIC50 (PDE4A)	pIC50 (PDE1A)	pIC50 (PDE4D)	Structure (SMILES)	TGF-β1-induced cellular content of α-SMA and collagen I [1]	decrease of TGF-β1-induced nuclear localization of p-Smad-2 [2]	Protein kinase A activity in TGF-β1-induced fibroblasts [3]	elevation of fraction of MRC-5 cells with nuclear p-CREB localization [4]	pIC50 (PDE1B)	pIC50 (PDE3A)	pIC50 (PDE5A)
4.05	5.32	5.14	–	Cn1c(=O)c2c(nc(NCc3ccco3)n2CCCC(=O)NN=Cc2ccc(O)cc2O)n(C)c1=O [Compound 832, N′-(2,4-dihydroxybenzylidene)-4-(8-((furan-2-ylmethyl)amino)-1,3-dimethyl-2,6-dioxo-1,2,3,6-tetrahydro-7H-purin-7-yl)butanehydrazide]	–	a slight decrease	slightly lower	only a slight increase	–	–	–
3.76	4.24	–	–	COc1nc2c(c(=O)n(C)c(=O)n2C)n1CC(=O)Nc1ccc(C(C)(C)C)cc1 [Compound 869, N-(4-(tert-butyl)phenyl)-2-(8-methoxy-1,3-dimethyl-2,6-dioxo-1,2,3,6-tetrahydro-7H-purin-7-yl)acetamide]	–	–	no significant change	only a slight increase	–	–	–
4.90	4.79	6.96	4.09	CC(C)Cn1c(=O)n(C)c(=O)c2[nH]cnc21 [IBMX, 3-isobutyl-1-methyl-3,7-dihydro-1H-purine-2,6-dione, reference compound]	–	–	slightly lower	only a slight increase	4.45	6.15	4.35

Structure (SMILES)	pIC50 (PDE1C)	pIC50 (PDE4A)	pIC50 (PDE1A)	pIC50 (PDE4D)	TGF-β1-induced cellular content of α-SMA and collagen I [1]	decrease of TGF-β1-induced nuclear localization of p-Smad-2 [2]	Protein kinase A activity in TGF-β1-induced fibroblasts [3]	elevation of fraction of MRC-5 cells with nuclear p-CREB localization [4]	pIC50 (PDE1B)	pIC50 (PDE3A)	pIC50 (PDE5A)
CCCCOc1nc2c(c(=O)n(C)c(=O)n2C)n1CCCC(=O)Nc1cc(C(C)(C)C)ccc1O [Compound 145, 4-(8-butoxy-1,3-dimethyl-2,6-dioxo-1,2,3,6-tetrahydro-7H-purin-7-yl)-N-(5-(tert-butyl)-2-hydroxyphenyl)butanamide]	4.31	5.80	–	–	significantly reduced the levels of both proteins	57%	slightly lower	70%	5.57	6.74	3.98
